Earlier results as cited in US20030165566A1, “Sedative non-benzodiazepine formulations” (priority 2002, published 2003).
Counter-ions that a name gives are not always drawn. Like-named read-outs stand apart in the source and are kept apart here.

Legend:
[1] = in vivo
[2] = 10 mg
[3] = single 20 mg oral dose, elderly (>70 years) vs 20 to 40 years
[4] = single 20 mg oral dose, elderly subjects (>70 years)
[5] = single 20 mg oral dose, younger adults (20 to 40 years)
[6] = 20 minutes after a meal vs fasting

Compound | half-life [1] | increase of mean AUC, elderly vs younger adults [3] | increase of mean Cmax, elderly vs younger adults [3] | increase of mean T1/2, elderly vs younger adults [3] | mean AUC [4] | mean Cmax [4] | mean T1/2 [4] | mean AUC [5] | mean Cmax [5] | mean T1/2 [5] | accumulation (elderly subjects, nightly oral dosing 10 mg for 1 week) | mean Tmax ([2]; 20 minutes after a meal) | decrease of mean AUC with food [2, 6] | decrease of mean Cmax with food [2, 6] | half-life with food [2, 6] | prolongation of mean Tmax with food [2, 6] | mean Tmax ([2]; fasting)
Cc1ccc(-c2nc3ccc(C)cn3c2CC(=O)N(C)C)cc1 [Zolpidem] | approximately 2.5 hours | 64% | 50% | 32% | 1,562 ng/hr/ml | 284 ng/mL | 2.9 h | 955 ng/h/mL | 255 ng/mL | 2.2 h | – | – | – | – | – | – | –
Cc1ccc(-c2nc3ccc(C)cn3c2CC(=O)N(C)C)cc1 [zolpidem tartrate] | – | – | – | – | – | – | – | – | – | – | did not accumulate | 2.2 h | 15% | 25% | remained unchanged | 60% | 1.4 h
